The nature of this assay: Inhibition of 12-O-tetradecanoylphorbol 13-acetate-induced transformation of mouse JB6 cells after 14 days by soft agar transformation assay. The assay is classed as functional, cell-based.

Each structure is given as a SMILES string. Values after ≈ are worked out from the molar mass of the structure shown.

Results on one compound are retold here after ChEMBL document CHEMBL1150631, “New chemical constituents of Euphorbia quinquecostata and absolute configuration assignment by a convenient Mosher ester procedure carried out in NMR tubes” (J Nat Prod, 2002).

In turn, `COc1ccc(/C=C/C=O)cc1OC` [3,4-DIMETHOXY CINNAMALDEHYDE] showed an IC50 of 2.3 µg/mL (≈ 12 µM).

The term IC50 denotes the point on the concentration scale where inhibition reaches its midpoint. A high value points to weaker potency in that assay.
